Numbered stars: 1 amine (or outer) side, 2 acyl side, 3 side chain; on linkers, the order of the positions; unused ones are H or OH. Bridge positions count the residues as written; N and C are the ends. Square brackets hold non-standard residues; d marks the D form. Peptide text beside a SMILES is read from it. * marks the point of attachment. X9 = O=C(C[C@H](C(=O)[*:2])C1CCCCC1)[C@@H]1CCCN1[*:1]; Trp(5-Cl) = N[C@@H](Cc1c[nH]c2ccc(Cl)cc12)C(=O)O; Phe(4-CH2NH2) = NCc1ccc(C[C@H](N)C(=O)O)cc1; NMeW = CN[C@@H](Cc1c[nH]c2ccccc12)C(=O)O; Phe(3-Cl) = N[C@@H](Cc1cccc(Cl)c1)C(=O)O; X1 = O=C(C(N[*:1])C1CCc2ccccc2C1)[*:2]; mXylylene = c1cc(C[*:1])cc(C[*:2])c1; NMeY = CN[C@@H](Cc1ccc(O)cc1)C(=O)O; NMeT = CN[C@H](C(=O)O)[C@@H](C)O; X8 = CC(C)(C)[C@H](N*)c1ccccn1; dPhg = N[C@@H](C(=O)O)c1ccccc1; Chg = N[C@H](C(=O)O)C1CCCCC1; Phg = N[C@H](C(=O)O)c1ccccc1; Tle = CC(C)(C)[C@H](N)C(=O)O; NMeS = CN[C@@H](CO)C(=O)O; Nle = CCCC[C@H](N)C(=O)O; Dab = NCC[C@H](N)C(=O)O; Nva = CCC[C@H](N)C(=O)O; Mpa = O=C(O)CCS

T1 sequence (P03952 20-390 limits assumed): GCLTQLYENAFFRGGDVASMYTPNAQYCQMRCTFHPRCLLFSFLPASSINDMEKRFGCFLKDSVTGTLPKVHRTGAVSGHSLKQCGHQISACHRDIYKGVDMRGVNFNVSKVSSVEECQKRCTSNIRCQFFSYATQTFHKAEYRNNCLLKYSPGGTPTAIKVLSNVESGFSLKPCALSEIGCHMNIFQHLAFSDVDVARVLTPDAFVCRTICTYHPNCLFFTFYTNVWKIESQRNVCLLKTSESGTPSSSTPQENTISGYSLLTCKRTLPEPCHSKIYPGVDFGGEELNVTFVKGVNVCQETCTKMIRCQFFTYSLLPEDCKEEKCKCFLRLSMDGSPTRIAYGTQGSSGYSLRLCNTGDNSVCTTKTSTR
T1 sequence (P03952 391-638 limits assumed): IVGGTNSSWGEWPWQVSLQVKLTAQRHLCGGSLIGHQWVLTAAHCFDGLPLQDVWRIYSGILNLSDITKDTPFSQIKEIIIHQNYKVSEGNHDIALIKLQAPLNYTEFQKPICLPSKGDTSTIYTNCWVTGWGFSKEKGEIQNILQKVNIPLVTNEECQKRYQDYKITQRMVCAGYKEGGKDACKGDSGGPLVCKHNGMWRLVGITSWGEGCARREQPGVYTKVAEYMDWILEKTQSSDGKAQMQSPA

The assay addresses T1, human plasma kallikrein (Homo sapiens, UniProt P03952).
T1 construct: purchased Enzyme Research Laboratories HPKa 1303
Kind of assay: Enzyme inhibition assay (fluorogenic substrate H-Pro-Phe-Arg-AMC). In kind it is biochemical. The settings on record: Kallikrein inhibitory activity; 1 nM activated human kallikrein, 500 μM H-Pro-Phe-Arg-AMC, 1 hour room temperature; read-out: Avg. IC50. The gist of the method: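 IC50 was determined from AMC fluorescence (ex 360/em 460 nm) after 1 h of reaction at room temperature with 500 μM final substrate. Before this, peptides in ten 8-fold serial dilutions were incubated 5 min with 1 nM final activated kallikrein. The buffer was Tris-HCl pH 7.2 containing NaCl, CaCl2 and Brij-35.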
`CCC[C@H](N)C(=O)N[C@H]1CSCc2cccc(c2)CSC[C@@H](C(=O)N[C@@H](Cc2ccc(CN)cc2)C(=O)N[C@H](C(N)=O)C(C)C)NC(=O)[C@H]([C@@H](C)CC)NC(=O)[C@H](CO)NC(=O)[C@H](CCC(=O)O)NC1=O` [Compound R2021, [mXylyl(2,6)]Nvl-CESIC-Phe(4-CH2NH2)-V-NH2] (H-[Nva]CESIC[Phe(4-CH2NH2)]V-NH2; linker 2-6 via mXylylene): the IC50 (usually the concentration that gives 50% inhibition) came out at 2 µM. Then `CC(C)(C)[C@H](NC(=O)[C@H](CCCNC(=N)N)NC(=O)[C@@H]1CCn2cc(nn2)CCCCCC(=O)N2CCC[C@H]2C(=O)N[C@@H](C2CCCCC2)C(=O)N1)C(N)=O` [Compound R2251], with greater than 100 µM. As for `CC(=O)N[C@H](C(=O)N[C@H]1CSCc2cccc(c2)CSC[C@@H](C(N)=O)NC(=O)[C@H](C)NC(=O)[C@H](C(C)C)NC(=O)[C@H](CCCNC(=N)N)NC1=O)C1CCCCC1` [Compound R2159, [mXylyl(2,6)]Ac-Chg-CR-V-AC-NH2] (Ac-[Chg]CRVAC-NH2; linker 2-6 via mXylylene), the 50% inhibitory concentration (IC50) was greater than 20.1 µM. With `CC(C)(C)[C@H](NC(=O)[C@H](CCCNC(=N)N)NC(=O)[C@@H]1C/C=C/c2cccc(c2)OCCCC(=O)N2CCC[C@H]2C(=O)N[C@@H](C2CCCCC2)C(=O)N1)C(N)=O` [Compound R2262] the figure was greater than 100 µM; with `CC(C)(C)[C@H](NC(=O)[C@H](Cc1cccc(Cl)c1)NC(=O)[C@@H]1CSCc2cccc(c2)CSCCC(=O)N2CCC[C@H]2C(=O)N[C@@H](c2ccccc2)C(=O)N1)C(N)=O` [Compound R2207, [mXylyl(1,4)](des-NH2)C-P-Phg-C-3-Cl-Phe-Tbg-NH2] ([Mpa]P[Phg]C[Phe(3-Cl)][Tle]-NH2; linker 1-4 via mXylylene), greater than 75 µM; with `CC(C)(C)[C@H](NC(=O)[C@H](CCCNC(=N)N)NC(=O)[C@@H]1CSCc2cccc(c2)CSCCC(=O)N2CCC[C@H]2C(=O)C[C@@H](C2CCCCC2)C(=O)N1)C(N)=O` [Compound R2247] ([Mpa][X9]CR[Tle]-NH2; linker 1-3 via mXylylene), 0.474 µM. Then `N=C(N)NCCC[C@H](NC(=O)[C@@H]1CSCc2cccc(c2)CSCCC(=O)N2CCC[C@H]2C(=O)N[C@@H](C2CCCCC2)C(=O)N1)C(=O)O` [Compound R2195, [mXylyl(1,4)](des-NH2)C-P-Chg-CR-OH] ([Mpa]P[Chg]CR-OH; linker 1-4 via mXylylene), with greater than 175 µM; and `CCCC[C@@H]1NC(=O)[C@@H](NC(C)=O)CSCc2cccc(c2)CSC[C@@H](C(=O)N[C@@H](CCCNC(=N)N)C(=O)N[C@H](C(N)=O)C(C)(C)C)NC(=O)[C@H](c2ccccc2)NC(=O)[C@H](CO)NC1=O` [Compound R2065, [mXylyl(1,5)]Ac-C-Nle-S-Phg-CR-Tbg-NH2] (Ac-C[Nle]S[Phg]CR[Tle]-NH2; linker 1-5 via mXylylene), with 0.0061 µM.

In the case of `CC[C@H](C)[C@@H]1NC(=O)[C@H](CO)NC(=O)CSCc2cccc(c2)CSC[C@@H](C(=O)N[C@@H](CCCNC(=N)N)C(=O)N[C@H](C(N)=O)C(C)C)NC1=O` [Compound R2154, [mXylyl(1,4)](2-SAc)-SICRV-NH2], the IC50 is greater than 7.93 µM. Turning to “Ac-YWSPWTECSA-NH2 [Compound R2118, Ac-YW SPWTECSA-NH2]”, the IC50 is greater than 100 µM. With `CC(C)(C)[C@H](NC(=O)[C@H](CCCNC(=N)N)NC(=O)[C@@H]1CSCc2cccc(c2)/C=C/CCC(=O)N2CCC[C@H]2C(=O)N[C@@H](C2CCCCC2)C(=O)N1)C(N)=O` [Compound R2260] the figure was 4.68 µM.

In the case of `CC(=O)N[C@@H](CS)C(=O)N[C@@H](CC(N)=O)C(=O)N[C@@H](Cc1ccc(O)cc1)C(=O)N[C@@H](Cc1c[nH]c2ccccc12)C(=O)N[C@H](CO)C(=O)N1CCC[C@H]1C(=O)N[C@@H](Cc1c[nH]c2ccccc12)C(=O)N[C@H](C(=O)N[C@@H](C)C(=O)N[C@@H](CS)C(N)=O)[C@@H](C)O` [Compound R2230, Ac-CNYWsPWTAC-NH2] (Ac-CNYW[dS]PWTAC-NH2), the IC50 is greater than 6.58 µM.

In the case of `CC(=O)N[C@@H](CS)C(=O)N[C@@H](CC(N)=O)C(=O)N(C)[C@@H](Cc1ccc(O)cc1)C(=O)N[C@@H](Cc1c[nH]c2ccccc12)C(=O)N[C@@H](CO)C(=O)N1CCC[C@H]1C(=O)N[C@@H](Cc1c[nH]c2ccccc12)C(=O)N[C@H](C(=O)N[C@@H](C)C(=O)N[C@@H](CS)C(N)=O)[C@@H](C)O` [Compound R2239, Ac-CN-nMeY-WSPWTAC-NH2] (Ac-CN[NMeY]WSPWTAC-NH2), the IC50 was greater than 12.5 µM. Regarding “Ac-WSPWTECSA-NH2 [Compound R2119, Ac-WSPWTECSA-NH2]”, the IC50 is greater than 100 µM.

On to `CC(=O)N[C@@H](CS)C(=O)N[C@@H](CC(N)=O)C(=O)N[C@@H](Cc1ccc(O)cc1)C(=O)N(C)[C@@H](Cc1c[nH]c2ccccc12)C(=O)N[C@@H](CO)C(=O)N1CCC[C@H]1C(=O)N[C@@H](Cc1c[nH]c2ccccc12)C(=O)N[C@H](C(=O)N[C@@H](C)C(=O)N[C@@H](CS)C(N)=O)[C@@H](C)O` [Compound R2238, Ac-CNY-nMeW-SPWTAC-NH2] (Ac-CNY[NMeW]SPWTAC-NH2), for which the half-maximal inhibitory concentration (IC50) was greater than 4.52 µM. Then `CSCC[C@H](N)C(=O)N[C@H]1CSCc2cccc(c2)CSC[C@@H](C(=O)N[C@@H](CO)C(=O)N[C@@H](CCCNC(=N)N)C(N)=O)NC(=O)[C@H](CCC(=O)O)NC(=O)[C@H]([C@@H](C)O)NC(=O)[C@H](Cc2c[nH]c3ccccc23)NC(=O)[C@@H]2CCCN2C(=O)[C@H](CO)NC(=O)[C@H](Cc2c[nH]c3ccccc23)NC(=O)[C@H](Cc2ccc(O)cc2)NC(=O)[C@H](CC(N)=O)NC1=O` [Compound R2003, [mXylyl(2,11)]MCNYWSPWTECSR-NH2] (H-MCNYWSPWTECSR-NH2; linker 2-11 via mXylylene), with 0.0031 µM; and `CC(C)(C)[C@H](NC(=O)[C@H](CCCNC(=N)N)NC(=O)[C@@H]1CSCc2cccc(c2)CC(=O)NCCC(=O)N2CCC[C@H]2C(=O)N[C@@H](C2CCCCC2)C(=O)N1)C(N)=O` [Compound R2258], with 0.498 µM; and `CC(C)(C)[C@H](NC(=O)[C@H](CCCNC(=N)N)NC(=O)[C@@H]1CCc2cn(nn2)CCCCCC(=O)N2CCC[C@H]2C(=O)N[C@@H](C2CCCCC2)C(=O)N1)C(N)=O` [Compound R2254], with greater than 100 µM. For the compound `CC(=O)N[C@H]1CSCc2cccc(c2)CSC[C@@H](C(N)=O)NC(=O)[C@H](C)NC(=O)[C@H]([C@@H](C)O)N(C)C(=O)[C@H](Cc2c[nH]c3ccccc23)NC(=O)[C@@H]2CCCN2C(=O)[C@H](CO)N(C)C(=O)[C@H](Cc2c[nH]c3ccccc23)NC(=O)[C@H](Cc2ccc(O)cc2)N(C)C(=O)[C@H](CC(N)=O)NC1=O` [Compound R2223, [mXylyl(1,10)]Ac-CN-nMeY-W-nMeS-PW-nMeT-AC-NH2] (Ac-CN[NMeY]W[NMeS]PW[NMeT]AC-NH2; linker 1-10 via mXylylene), the IC50 is greater than 100 µM. Regarding `CC(C)(C)[C@H](NC(=O)[C@H](CCCNC(=N)N)NC(=O)[C@@H]1CSCc2cccc(c2)CSCCC(=O)N2CCC[C@H]2C(=O)N[C@@H](C2CCCCC2)C(=O)N1)c1ccccn1` [Compound R2196, [mXylyl(1,4)](des-NH2)C-P-Chg-CR-(S)-2,2-dimethyl-1-(pyridin-2-yl)propan-1-amine] ([Mpa]P[Chg]CR-X8; linker 1-4 via mXylylene), the IC50 stood at 0.0356 µM. On to `CC(C)(C)[C@H](NC(=O)[C@H](CCN)NC(=O)[C@@H]1CSCc2cccc(c2)CSCCC(=O)N2CCC[C@H]2C(=O)N[C@H](c2ccccc2)C(=O)N1)C(N)=O` [Compound R2212, [mXylyl(1,4)](des-NH2)C-P-(D-Phg)-C-Dab-Tbg-NH2] ([Mpa]P[dPhg]C[Dab][Tle]-NH2; linker 1-4 via mXylylene), for which the IC50 is greater than 100 µM. `CC(C)(C)[C@H](NC(=O)[C@H](CCCNC(=N)N)NC(=O)[C@@H]1CCCc2cccc(c2)OCCCC(=O)N2CCC[C@H]2C(=O)N[C@@H](C2CCCCC2)C(=O)N1)C(N)=O` [Compound R2263]: the IC50 is greater than 100 µM. With `CC(C)(C)[C@H](NC(=O)[C@H](CCCNC(=N)N)NC(=O)[C@@H]1CSCc2cccc(c2)CSCCC(=O)N2CCC[C@H]2C(=O)NC(C2CCc3ccccc3C2)C(=O)N1)C(N)=O` (stereo partly drawn) [Compound R2267] ([Mpa]P[X1]CR[Tle]-NH2; linker 1-4 via mXylylene) the figure was 0.0128 µM. Regarding `CC(C)(C)[C@H](NC(=O)[C@H](Cc1c[nH]c2ccc(Cl)cc12)NC(=O)[C@@H]1CSCc2cccc(c2)CSCCC(=O)N2CCC[C@H]2C(=O)N[C@@H](c2ccccc2)C(=O)N1)C(N)=O` [Compound R2209, [mXylyl(1,4)](des-NH2)C-P-Phg-C-5-C1-Trp-Tbg-NH2] ([Mpa]P[Phg]C[Trp(5-Cl)][Tle]-NH2; linker 1-4 via mXylylene), the IC50 was greater than 75 µM.

For the origin of these results see patent US9999650B2, “Peptide and peptidomimetic inhibitors” (Ra Pharmaceuticals, Inc., priority 2012, dated 2018).
